Read-outs that look alike come from different tables or passages of the source.
Test system: patients with advanced TP53 wild-type (WT) leukemias

## COc1ncc(-c2nc3c(n2C(C)C)[C@H](c2ccc(Cl)cc2)N(c2cc(Cl)cn(C)c2=O)C3=O)c(OC)n1 [HDM201, (S)-5-(5-Chloro-1-methyl-2-oxo-1,2-dihydro-pyridin-3-yl)-6-(4-chloro-phenyl)-2-(2,4-dimethoxy-pyrimidin-5-yl)-1-isopropyl-5,6-dihydro-1H-pyrrolo[3,4-d]imidazol-4-one]
Regimen 1A N = 16, Grade 3/4
  AE: Iron Overload: 0 n (%)
  AE: Leukopenia: 2 (12.5) n (%)
  AE: Lip Oedema: 0 n (%)
  AE: Lipase Increased: 2 (12.5) n (%)
  AE: Macular Oedema: 0 n (%)
  AE: Malaise: 0 n (%)
  AE: Mouth Haemorrhage: 0 n (%)
  AE: Nausea: 0 n (%)
  AE: Neutropenia/Neutrophil Count Decreased: 6 (37.5) n (%)
  AE: Oedema: 0 n (%)
  AE: Oral Disorder: 0 n (%)
  AE: Pain In Extremity: 0 n (%)
  AE: Pancytopenia: 0 n (%)
  AE: Pneumonia: 0 n (%)
  AE: Pollakiuria: 0 n (%)
  AE: Pyrexia: 0 n (%)
  AE: Rash: 0 n (%)
  AE: Rash Erythematous: 0 n (%)
  AE: Rash Papular: 0 n (%)
  AE: Rectal Haemorrhage: 0 n (%)
  AE: Renal Failure: 0 n (%)
  AE: Skin Exfoliation: 0 n (%)
  AE: Stomatitis: 1 (6.3) n (%)
  AE: Subarachnoid Haemorrhage: 1 (6.3) n (%)
  AE: Thrombocytopenia/Platelet Count Decreased: 8 (50.0) n (%)
  AE: Total: 12 (75.0) n (%)
  AE: Tumour Lysis Syndrome: 7 (43.8) n (%)
  AE: Vomiting: 0 n (%)
  AE: Weight Decreased: 0 n (%)
  AE: White Blood Cell Count Decreased: 0 n (%)
Regimen 1B N = 6, All Grades
  AE: Abdominal Discomfort: 0 n (%)
  AE: Abdominal Pain: 0 n (%)
  AE: Abdominal Pain Upper: 0 n (%)
  AE: Acute Kidney Injury: 1 (16.7) n (%)
  AE: Amylase Increased: 0 n (%)
  AE: Anaemia: 2 (33.3) n (%)
  AE: Arthralgia: 0 n (%)
  AE: Asthenia: 1 (16.7) n (%)
  AE: Atrial Fibrillation: 0 n (%)
  AE: Atypical Pneumonia: 0 n (%)
  AE: Balanitis Candida: 0 n (%)
  AE: Blood Alkaline Phosphatase Increased: 0 n (%)
  AE: Blood Bilirubin Increased: 1 (16.7) n (%)
  AE: Blood Creatinine Increased: 0 n (%)
  AE: Blood Phosphorus Increased: 1 (16.7) n (%)
  AE: Blood Uric Acid Increased: 0 n (%)
  AE: Bone Marrow Failure: 0 n (%)
  AE: C-Reactive Protein Increased: 0 n (%)
  AE: Cardiac Failure: 0 n (%)
  AE: Cellulitis: 1 (16.7) n (%)
  AE: Chronic Graft Versus Host Disease: 0 n (%)
  AE: Conjunctival Haemorrhage: 0 n (%)
  AE: Constipation: 1 (16.7) n (%)
  AE: Cough: 0 n (%)
  AE: Cystitis Viral: 0 n (%)
  AE: Cytomegalovirus Infection: 0 n (%)
  AE: Decreased Appetite: 1 (16.7) n (%)
  AE: Diarrhoea: 0 n (%)
  AE: Dyspepsia: 0 n (%)
  AE: Dyspnoea: 0 n (%)
  AE: Epistaxis: 0 n (%)
  AE: Fatigue: 0 n (%)
  AE: Febrile Neutropenia: 2 (33.3) n (%)
  AE: Gamma-Glutamyltransferase Increased: 0 n (%)
  AE: General Physical Health Deterioration: 0 n (%)
  AE: Gingival Bleeding: 0 n (%)
  AE: Graft Versus Host Disease: 0 n (%)
  AE: Haemoglobin Decreased: 0 n (%)
  AE: Headache: 1 (16.7) n (%)
  AE: Hyperbilirubinaemia: 1 (16.7) n (%)
  AE: Hyperglycaemia: 0 n (%)
  AE: Hyperkalaemia: 1 (16.7) n (%)
  AE: Hyperphosphataemia: 1 (16.7) n (%)
  AE: Hyperuricaemia: 2 (33.3) n (%)
  AE: Hypoalbuminaemia: 0 n (%)
  AE: Hypocalcaemia: 0 n (%)
  AE: Hypokalaemia: 1 (16.7) n (%)
  AE: Hypomagnesaemia: 0 n (%)
  AE: Hyponatraemia: 1 (16.7) n (%)
  AE: Hypophosphataemia: 0 n (%)
  AE: Hypotension: 0 n (%)
  AE: Infection: 0 n (%)
  AE: Infective Glossitis: 0 n (%)
  AE: Iron Overload: 0 n (%)
  AE: Leukopenia: 0 n (%)
  AE: Lip Oedema: 0 n (%)
  AE: Lipase Increased: 0 n (%)
  AE: Macular Oedema: 1 (16.7) n (%)
  AE: Malaise: 0 n (%)
  AE: Mouth Haemorrhage: 0 n (%)
  AE: Nausea: 4 (66.7) n (%)
  AE: Neutropenia/Neutrophil Count Decreased: 1 (16.7) n (%)
  AE: Oedema: 0 n (%)
  AE: Oedema Peripheral: 1 (16.7) n (%)
  AE: Oral Disorder: 0 n (%)
  AE: Pain In Extremity: 0 n (%)
  AE: Pancytopenia: 1 (16.7) n (%)
  AE: Pneumonia: 0 n (%)
  AE: Pollakiuria: 0 n (%)
  AE: Pyrexia: 0 n (%)
  AE: Rash: 0 n (%)
  AE: Rash Erythematous: 0 n (%)
  AE: Rash Papular: 0 n (%)
  AE: Rectal Haemorrhage: 1 (16.7) n (%)
  AE: Renal Failure: 0 n (%)
  AE: Skin Exfoliation: 0 n (%)

Reference: patent publication US10966978B2, “Dose and regimen for HDM2-p53 interaction inhibitors” (Novartis AG, priority 2016, dated 2021)
